One may read the EC50 as the concentration giving half of the maximal effect.

The text below walks through data of patent publication US10034886B2, “GLP-1 receptor modulators” (Celgene International II SÀRL, priority 2014, dated 2018).

T1 sequence (P43220 24-463): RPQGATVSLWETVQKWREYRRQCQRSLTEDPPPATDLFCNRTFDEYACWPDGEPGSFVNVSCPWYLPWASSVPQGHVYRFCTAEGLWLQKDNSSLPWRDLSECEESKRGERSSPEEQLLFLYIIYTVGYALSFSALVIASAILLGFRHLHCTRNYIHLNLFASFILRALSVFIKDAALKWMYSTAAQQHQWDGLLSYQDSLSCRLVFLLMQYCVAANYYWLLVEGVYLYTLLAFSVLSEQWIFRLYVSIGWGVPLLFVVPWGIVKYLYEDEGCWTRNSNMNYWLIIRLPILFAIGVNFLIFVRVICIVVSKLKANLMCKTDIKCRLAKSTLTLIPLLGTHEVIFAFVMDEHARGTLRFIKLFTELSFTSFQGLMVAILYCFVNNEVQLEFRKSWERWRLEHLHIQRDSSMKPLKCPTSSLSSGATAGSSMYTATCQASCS
T1 sequence (P01275 100-127 partner limits assumed): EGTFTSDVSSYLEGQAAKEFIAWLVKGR

This test has as its target T1, GLP-1R (Homo sapiens, UniProt P43220).
T1 construct: host or cells: GLP-1R CRE-bla CHO-K1 cells
Description: EC20 GLP-1(9-36) PAM cAMP assay: dose response of compound in the presence of fixed concentration of GLP-1(9-36). Type of test: cell-based. To be noted: dose response of compound in presence of fixed concentration of GLP-1(9-36), GLP-1R CRE-bla CHO-K1 cells, read-out: EC20 GLP-1(9-36) PAM EC50. The procedure, abridged:
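GLP-1R CRE-bla CHO-K1 cells treated 30 min at 37 °C with 12-point compound dose response plus fixed EC20 GLP-1(9-36), with IBMX, in HBSS/HEPES/0.1% BSA pH 7.4. Total cAMP measured by luminescent detection against standard curve; EC50 and Emax from non-linear regression.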
For `CCCCCCCOc1ccc(-c2cnc(-c3ccc(C[C@H](NC(=O)c4ccc(C(C)(C)C)cc4)C(=O)NCCC(=O)O)cc3)nc2)cc1CC` [Compound 703], the EC50 is less than 0.8 µM.
With `CCCCCCCOc1ccc(-c2cnc(-c3ccc(C[C@H](NC(=O)c4ccc(C(C)(C)C)cc4)C(=O)NCCC(=O)O)cc3)nc2)cc1C1CC1` [Compound 704] the figure was 0.8 to 2.5 µM; with `CCCCCCCOc1c(C)cc(-c2cnc(-c3ccc(C[C@H](NC(=O)c4ccc(C(C)(C)C)cc4)C(=O)NCCC(=O)O)cc3)nc2)cc1C` [Compound 705], 0.8 to 2.5 µM; with `CCCC(C)CCOc1ccc(-c2cnc(-c3ccc(C[C@H](NC(=O)c4ccc(C(C)(C)C)cc4)C(=O)NCCC(=O)O)cc3)nc2)cc1` (some centres unmarked) [Compound 706], 0.8 to 2.5 µM.
The result for `CCCC(C)COc1ccc(-c2cnc(-c3ccc(C[C@H](NC(=O)c4ccc(C(C)(C)C)cc4)C(=O)NCCC(=O)O)cc3)nc2)cc1` (some centres unmarked) [Compound 707] reads 5 to 10 µM.
For the compound `CCCOc1ccc(-c2cnc(-c3ccc(C[C@H](NC(=O)c4ccc(C(C)(C)C)cc4)C(=O)NCCC(=O)O)cc3)nc2)cc1` [Compound 708], the EC50 is 0.8 to 2.5 µM.
On to `CCCCOc1ccc(-c2cnc(-c3ccc(C[C@H](NC(=O)c4ccc(C(C)(C)C)cc4)C(=O)NCCC(=O)O)cc3)nc2)cc1` [Compound 709], for which the EC50 lay within 0.8 to 2.5 µM.
With `CCCCCOc1ccc(-c2cnc(-c3ccc(C[C@H](NC(=O)c4ccc(C(C)(C)C)cc4)C(=O)NCCC(=O)O)cc3)nc2)cc1` [Compound 710], the concentration giving a half-maximal response (EC50) lay in the range of 5 to 10 µM.
As to `CCCCCCOc1ccc(-c2cnc(-c3ccc(C[C@H](NC(=O)c4ccc(C(C)(C)C)cc4)C(=O)NCCC(=O)O)cc3)nc2)cc1` [Compound 711], the concentration for a half-maximal effect (EC50) was 2.5 to 5 µM.
With `CCCCCCCCOc1ccc(-c2cnc(-c3ccc(C[C@H](NC(=O)c4ccc(C(C)(C)C)cc4)C(=O)NCCC(=O)O)cc3)nc2)cc1` [Compound 712] the figure was 0.8 to 2.5 µM; with `CC(C)(C)c1ccc(COc2ccc(-c3cnc(-c4ccc(C[C@H](NC(=O)c5ccc(C(C)(C)C)cc5)C(=O)NCCC(=O)O)cc4)nc3)cc2)cc1` [Compound 713], 0.8 to 2.5 µM.
As for `C/C=C/CCCOc1ccc(-c2cnc(-c3ccc(C[C@H](NC(=O)c4ccc(C(C)C)cc4)C(=O)NCCC(=O)O)cc3)nc2)cc1` [Compound 714], the concentration for a half-maximal effect (EC50) lay within 2.5 to 5 µM.
On to `CCC/C=C\CCOc1ccc(-c2cnc(-c3ccc(C[C@H](NC(=O)c4ccc(C(C)(C)C)cc4)C(=O)NCCC(=O)O)cc3)nc2)cc1` [Compound 715], for which the half-maximal effective concentration (EC50) was 2.5 to 5 µM.
For the compound `CCC/C=C/CCOc1ccc(-c2cnc(-c3ccc(C[C@H](NC(=O)c4ccc(C(C)(C)C)cc4)C(=O)NCCC(=O)O)cc3)nc2)cc1` [Compound 716], the EC50 was 0.8 to 2.5 µM.
The result for `CCCCOc1ccc(-c2cnc(-c3ccc(C[C@H](NC(=O)c4ccc(C(C)(C)C)cc4)C(=O)N[C@H](C)C(=O)O)cc3)nc2)cc1` [Compound 717] reads 0.8 to 2.5 µM; that for `CCCCCOc1ccc(-c2cnc(-c3ccc(C[C@H](NC(=O)c4ccc(C(C)(C)C)cc4)C(=O)N[C@H](C)C(=O)O)cc3)nc2)cc1` [Compound 718], 2.5 to 5 µM.
The result for `CCCCCCOc1ccc(-c2cnc(-c3ccc(C[C@H](NC(=O)c4ccc(C(C)(C)C)cc4)C(=O)N[C@H](C)C(=O)O)cc3)nc2)cc1` [Compound 719] reads 0.8 to 2.5 µM.
As to `C[C@@H](NC(=O)[C@H](Cc1ccc(-c2ncc(-c3ccc(C(C)(C)C)cc3)cn2)cc1)NC(=O)c1ccc(C(C)(C)C)cc1)C(=O)O` [Compound 720], the EC50 was in the range of 2.5 to 5 µM.
Turning to `CCOc1ccc(-c2cnc(-c3ccc(C[C@H](NC(=O)c4ccc(C(C)(C)C)cc4)C(=O)N[C@H](C)C(=O)O)cc3)nc2)cc1` [Compound 721], the 50% effective concentration (EC50) lay within 0.8 to 2.5 µM.
For the compound `CCCOc1ccc(-c2cnc(-c3ccc(C[C@H](NC(=O)c4ccc(C(C)(C)C)cc4)C(=O)N[C@H](C)C(=O)O)cc3)nc2)cc1` [Compound 722], the concentration giving a half-maximal response (EC50) lay within 0.8 to 2.5 µM.
With `CCCCCCCCOc1ccc(-c2cnc(-c3ccc(C[C@H](NC(=O)c4ccc(C(C)(C)C)cc4)C(=O)N[C@H](C)C(=O)O)cc3)nc2)cc1` [Compound 723], the EC50 was in the range of 0.8 to 2.5 µM.
Take `CCCCCCCc1ccc(-c2cnc(-c3ccc(C[C@H](NC(=O)c4ccc(C(C)(C)C)cc4)C(=O)N[C@H](C)C(=O)O)cc3)nc2)cc1` [Compound 724]: the half-maximal effective concentration (EC50) lay within 0.8 to 2.5 µM.
In the case of `CCCCCC(=O)c1ccc(-c2cnc(-c3ccc(C[C@H](NC(=O)c4ccc(C(C)(C)C)cc4)C(=O)N[C@H](C)C(=O)O)cc3)nc2)cc1` [Compound 725], the EC50 lay in the range of 0.8 to 2.5 µM.
`C[C@@H](NC(=O)[C@H](Cc1ccc(-c2ncc(-c3ccc(OCC(C)(C)C)cc3)cn2)cc1)NC(=O)c1ccc(C(C)(C)C)cc1)C(=O)O` [Compound 726]: the half-maximal effective concentration (EC50) was in the range of 0.8 to 2.5 µM.
In the case of `Cc1ccc(-c2ccc(-c3cnc(-c4ccc(C[C@H](NC(=O)c5ccc(C(C)(C)C)cc5)C(=O)N[C@H](C)C(=O)O)cc4)nc3)cc2)cc1` [Compound 727], the 50% effective concentration (EC50) fell in the range of 2.5 to 5 µM.
Consider `C[C@@H](NC(=O)[C@H](Cc1ccc(-c2ncc(-c3ccc(C(F)(F)F)cc3)cn2)cc1)NC(=O)c1ccc(C(C)(C)C)cc1)C(=O)O` [Compound 728], for which the concentration giving a half-maximal response (EC50) is 0.8 to 2.5 µM.
Consider `CCCCCCNc1ccc(-c2cnc(-c3ccc(C[C@H](NC(=O)c4ccc(C(C)(C)C)cc4)C(=O)N[C@H](C)C(=O)O)cc3)nc2)cc1` [Compound 729], for which the EC50 fell in the range of 0.8 to 2.5 µM.
The result for `COc1ccc(-c2cnc(-c3ccc(C[C@H](NC(=O)c4ccc(C(C)(C)C)s4)C(=O)N[C@H](C)C(=O)O)cc3)nc2)cc1` [Compound 730] reads 2.5 to 5 µM; that for `CCOc1ccc(-c2cnc(-c3ccc(C[C@H](NC(=O)c4ccc(C(C)(C)C)s4)C(=O)N[C@H](C)C(=O)O)cc3)nc2)cc1` [Compound 731], 2.5 to 5 µM; that for `CCCOc1ccc(-c2cnc(-c3ccc(C[C@H](NC(=O)c4ccc(C(C)(C)C)s4)C(=O)N[C@H](C)C(=O)O)cc3)nc2)cc1` [Compound 732], 0.8 to 2.5 µM.
On to `CCCCOc1ccc(-c2cnc(-c3ccc(C[C@H](NC(=O)c4ccc(C(C)(C)C)s4)C(=O)N[C@H](C)C(=O)O)cc3)nc2)cc1` [Compound 733], for which the concentration giving a half-maximal response (EC50) fell in the range of 0.8 to 2.5 µM.
Take `CCCCCOc1ccc(-c2cnc(-c3ccc(C[C@H](NC(=O)c4ccc(C(C)(C)C)s4)C(=O)N[C@H](C)C(=O)O)cc3)nc2)cc1` [Compound 734]: the concentration giving a half-maximal response (EC50) fell in the range of 0.8 to 2.5 µM.
For `CCCCCCOc1ccc(-c2cnc(-c3ccc(C[C@H](NC(=O)c4ccc(C(C)(C)C)s4)C(=O)N[C@H](C)C(=O)O)cc3)nc2)cc1` [Compound 735], the EC50 is 0.8 to 2.5 µM.
Take `CCCCCCCCOc1ccc(-c2cnc(-c3ccc(C[C@H](NC(=O)c4ccc(C(C)(C)C)s4)C(=O)N[C@H](C)C(=O)O)cc3)nc2)cc1` [Compound 736]: the EC50 was less than 0.8 µM.
Regarding `CCCCCCCc1ccc(-c2cnc(-c3ccc(C[C@H](NC(=O)c4ccc(C(C)(C)C)s4)C(=O)N[C@H](C)C(=O)O)cc3)nc2)cc1` [Compound 737], the EC50 is less than 0.8 µM.
`CCCCCC(=O)c1ccc(-c2cnc(-c3ccc(C[C@H](NC(=O)c4ccc(C(C)(C)C)s4)C(=O)N[C@H](C)C(=O)O)cc3)nc2)cc1` [Compound 738]: the EC50 is less than 0.8 µM.
Turning to `C[C@@H](NC(=O)[C@H](Cc1ccc(-c2ncc(-c3ccc(OCC(C)(C)C)cc3)cn2)cc1)NC(=O)c1ccc(C(C)(C)C)s1)C(=O)O` [Compound 739], the EC50 is less than 0.8 µM.
With `C[C@@H](NC(=O)[C@H](Cc1ccc(-c2ncc(-c3ccc(N4CCCCC4)cc3)cn2)cc1)NC(=O)c1ccc(C(C)(C)C)s1)C(=O)O` [Compound 740] the figure was 2.5 to 5 µM.
`C[C@@H](NC(=O)[C@H](Cc1ccc(-c2ncc(-c3ccc(-c4ccccc4)cc3)cn2)cc1)NC(=O)c1ccc(C(C)(C)C)s1)C(=O)O` [Compound 741]: the concentration for a half-maximal effect (EC50) lay within 2.5 to 5 µM.
As to `C[C@@H](NC(=O)[C@H](Cc1ccc(-c2ncc(-c3ccc(C(F)(F)F)cc3)cn2)cc1)NC(=O)c1ccc(C(C)(C)C)s1)C(=O)O` [Compound 742], the EC50 fell in the range of 2.5 to 5 µM.
For `CCCCc1noc(-c2cnc(-c3ccc(C[C@H](NC(=O)c4ccc(C(C)(C)C)cc4)C(=O)NCCC(=O)O)cc3)nc2)n1` [Compound 743], the EC50 lay within 5 to 10 µM.
`CC(C)(C)Cc1noc(-c2cnc(-c3ccc(C[C@H](NC(=O)c4ccc(C(C)(C)C)cc4)C(=O)NCCC(=O)O)cc3)nc2)n1` [Compound 744]: the EC50 lay within 5 to 10 µM.
Consider `CC(C)(C)c1ccc(C(=O)N[C@@H](Cc2ccc(-c3ncc(-c4nc(-c5ccc(C(C)(C)C)cc5)no4)cn3)cc2)C(=O)NCCC(=O)O)cc1` [Compound 745], for which the EC50 lay in the range of 0.8 to 2.5 µM.
In the case of `CC(C)(C)c1ccc(C(=O)N[C@@H](Cc2ccc(-c3ncc(-c4nc(CCc5ccccc5)no4)cn3)cc2)C(=O)NCCC(=O)O)cc1` [Compound 746], the EC50 is 2.5 to 5 µM.
The result for `CC(C)(C)c1ccc(C(=O)N[C@@H](Cc2ccc(-c3ncc(-c4nc(CC5CCCCC5)no4)cn3)cc2)C(=O)NCCC(=O)O)cc1` [Compound 747] reads 2.5 to 5 µM; that for `Cc1ccc(-c2cccc(-c3noc(-c4cnc(-c5ccc(C[C@H](NC(=O)c6ccc(C(C)(C)C)cc6)C(=O)NCCC(=O)O)cc5)nc4)n3)c2)cc1` [Compound 748], 2.5 to 5 µM.
On to `CC(C)CCc1noc(-c2cnc(-c3ccc(C[C@H](NC(=O)c4ccc(C(C)(C)C)cc4)C(=O)NCCC(=O)O)cc3)nc2)n1` [Compound 749], for which the EC50 is 0.8 to 2.5 µM.
On to `Cc1cccc(-c2noc(-c3cnc(-c4ccc(C[C@H](NC(=O)c5ccc(C(C)(C)C)cc5)C(=O)NCCC(=O)O)cc4)nc3)n2)c1` [Compound 750], for which the 50% effective concentration (EC50) lay in the range of 2.5 to 5 µM.
As for `CC(C)(C)c1ccc(C(=O)N[C@@H](Cc2ccc(-c3ncc(-c4nc(-c5ccc(Cl)cc5)no4)cn3)cc2)C(=O)NCCC(=O)O)cc1` [Compound 751], the concentration giving a half-maximal response (EC50) lay within 2.5 to 5 µM.
Take `CC(C)(C)c1ccc(C(=O)N[C@@H](Cc2ccc(-c3ncc(-c4nc(-c5ccc(Cl)c(Cl)c5)no4)cn3)cc2)C(=O)NCCC(=O)O)cc1` [Compound 752]: the concentration for a half-maximal effect (EC50) is 5 to 10 µM.
